Measured values: US20100130737A1, “Regulating Agent of GPR34 Receptor Function” (TAKEDA PHARMACEUTICAL COMPANY LIMITED, priority 2005, published 2010)

First: O=C(N[C@@H](Cc1ccc(OCc2ccsc2)cc1)C(=O)O)c1cn2cc(-c3ccc(Cl)cc3)ccc2n1 [Example E2, N-{[6-(4-Chlorophenyl)imidazo[1,2-a]pyridin-2-yl]carbonyl}-O-(3-thienylmethyl)-L-tyrosine]
Second: O=C(N[C@@H](Cc1ccc(OCc2ccoc2)cc1)C(=O)O)c1cn2cc(-c3ccc(Cl)cc3)ccc2n1 [Example E31, N-{[6-(4-Chlorophenyl)imidazo[1,2-a]pyridin-2-yl]carbonyl}-O-(3-furylmethyl)tyrosine]
The melting point of the first is lower: 203 °C for the first, 262 °C for the second.

First: O=C(N[C@@H](Cc1ccc(OCc2ccccc2)cc1)C(=O)O)c1cn2cc(-c3ccc(Cl)cc3)cnc2n1 [Example E4, O-Benzyl-N-{[6-(4-chlorophenyl)imidazo[1,2-a]pyrimidin-2-yl]carbonyl}tyrosine]
Second: O=C(N[C@@H](Cc1ccc(OCc2ccccc2)cc1)C(=O)O)c1cn2ccc(-c3ccc(Cl)cc3)cc2n1 [Example E8, O-Benzyl-N-{[7-(4-chlorophenyl)imidazo[1,2-a]pyridin-2-yl]carbonyl}tyrosine]
The melting point of the first is lower: 252 to 253 °C for the first, 255 °C for the second.

Going from `O=C(NC(Cc1ccc(OCc2ccccc2F)cc1)C(=O)O)c1cn2cc(-c3ccc(Cl)cc3)ccc2n1` (stereo not shown) [Example E6] to `O=C(NC(Cc1ccc(OCc2cccc(F)c2)cc1)C(=O)O)c1cn2cc(-c3ccc(Cl)cc3)ccc2n1` (stereo not shown) [Example E10], the melting point falls from 273 °C to 252 °C.

Going from `O=C(NC(Cc1ccc(OCc2ccc(F)cc2)cc1)C(=O)O)c1cn2cc(-c3ccc(Cl)cc3)ccc2n1` (stereo not shown) [Example E7] to `O=C(N[C@@H](Cc1ccc(F)cc1)C(=O)O)c1cn2cc(-c3ccc(Cl)cc3)ccc2n1` [Example E11, N-{[6-(4-Chlorophenyl)imidazo[1,2-a]pyridin-2-yl]carbonyl}-4-fluorophenylalanine], the melting point falls from 267 °C to 266 °C.

Compared with `O=C(O)CN(Cc1ccc(OCc2ccc(F)cc2)cc1)C(=O)c1cn2cc(-c3ccc(Cl)cc3)ccc2n1` [Example E13, N-{[6-(4-Chlorophenyl)imidazo[1,2-a]pyridin-2-yl]carbonyl}-N-{4-[(4-fluorobenzyl)oxy]benzyl}glycine], `O=C(O)CN(Cc1ccc(OCc2ccccc2)cc1)C(=O)c1cn2cc(-c3ccc(Cl)cc3)ccc2n1` [Example E39, N-[4-(Benzyloxy)benzyl]-N-{[6-(4-chlorophenyl)imidazo[1,2-a]pyridin-2-yl]carbonyl}glycine] is higher in melting point: 206 °C for the first, 213 to 214 °C for the second.

Compared with `O=C(NC(Cc1ccc(OCc2ccccc2)cc1)c1nnn[nH]1)c1cn2cc(-c3ccc(Cl)cc3)ccc2n1` (stereo not shown) [Example E14, N-[2-[4-(Benzyloxy)phenyl]-1-(1H-tetrazol-5-yl)ethyl]-6-(4-chlorophenyl)imidazo[1,2-a]pyridine-2-carboxamide], `O=C(NC(Cc1ccc(OCc2ccccc2)cc1)c1nnn[nH]1)c1cn2nc(-c3ccc(Cl)cc3)ccc2n1` (stereo not shown) [Example E15, N-[2-[4-(Benzyloxy)phenyl]-1-(1H-tetrazol-5-yl)ethyl]-6-(4-chlorophenyl)imidazo[1,2-b]pyridazine-2-carboxamide] is lower in melting point: 241 °C for the first, 186 °C for the second.

First: O=C(N[C@@H](Cc1ccc(OCC2CC2)cc1)C(=O)O)c1cn2cc(-c3ccc(Cl)cc3)ccc2n1 [Example E17, N-{[6-(4-Chlorophenyl)imidazo[1,2-a]pyridin-2-yl]carbonyl}-O-(cyclopropylmethyl)tyrosine]
Second: O=C(N[C@@H](Cc1ccc(OCc2ccoc2)cc1)C(=O)O)c1cn2ccc(-c3ccc(Cl)cc3)cc2n1 [Example E33, N-{[7-(4-Chlorophenyl)imidazo[1,2-a]pyridin-2-yl]carbonyl}-O-(3-furylmethyl)tyrosine]
The melting point of the first is higher: 276 °C for the first, 243 °C for the second.

First: O=C(N[C@@H](Cc1ccc(OCc2ccccc2)cc1)C(=O)O)c1cn2cc(-c3cccnc3)ccc2n1 [Example E20, O-Benzyl-N-[(6-(pyridin-3-yl)imidazo[1,2-a]pyridine-2-yl)carbonyl]tyrosine]
Second: O=C(N[C@@H](Cc1ccc(OCc2ccccc2)cc1)C(=O)O)c1cn2cc(-c3ccncc3)ccc2n1 [Example E21, O-Benzyl-N-[(6-(pyridine-4-yl)imidazo[1,2-a]pyridin-2-yl)carbonyl]tyrosine]
The melting point of the first is lower: 244 °C for the first, 268 °C for the second.

First: O=C(NC(Cc1ccc(OCc2ccccc2)cc1)c1noc(=O)[nH]1)c1cn2cc(-c3ccc(Cl)cc3)ccc2n1 (stereo not shown) [Example E30, N-[2-[4-(Benzyloxy)phenyl]-1-(5-oxo-4,5-dihydro-1,2,4-oxadiazol-3-yl)ethyl]-6-(4-chlorophenyl)imidazo[1,2-a]pyridine-2-carboxamide]
Second: Cc1cc2nc(C(=O)N[C@@H](Cc3ccc(OCc4ccccc4)cc3)C(=O)O)cn2cc1-c1ccc(Cl)cc1 [Example E35, O-Benzyl-N-{[6-(4-chlorophenyl)-7-methylimidazo[1,2-a]pyridin-2-yl]carbonyl}tyrosine]
The melting point of the first is lower: 167 °C for the first, 248 to 249 °C for the second.

First: O=C(N[C@@H](Cc1ccc(OCc2ccoc2)cc1)C(=O)O)c1cn2nc(-c3ccc(Cl)cc3)ccc2n1 [Example E32, N-{[6-(4-Chlorophenyl)imidazo[1,2-b]pyridazin-2-yl]carbonyl}-O-(3-furylmethyl)tyrosine]
Second: Cc1cc2nc(C(=O)NC(Cc3ccc(OCc4ccccc4)cc3)C(=O)O)cn2c(C)c1-c1ccc(Cl)cc1 (stereo not shown) [Example E36]
The melting point of the first is lower: 220 °C for the first, 250 to 251 °C for the second.

`O=C(N[C@@H](Cc1ccc(OCc2ccccc2)cc1)C(=O)O)c1cn2cc(/C=C/c3ccccc3)ccc2n1` [Example E34, O-Benzyl-N-({6-[(E)-2-phenylethenyl]imidazo[1,2-a]pyridin-2-yl}carbonyl)tyrosine] and `COc1ccc(/C=C/c2ccc3nc(C(=O)N[C@@H](Cc4ccc(OCc5ccccc5)cc4)C(=O)O)cn3c2)cc1` [Example E43, O-Benzyl-N-({6-[(E)-2-(4-methoxyphenyl)ethenyl]imidazo[1,2-a]pyridin-2-yl}carbonyl)tyrosine] fall in the same range of melting point: 262 to 263 °C for the first, 262 to 263 °C for the second.

Compared with `O=C(N[C@@H](Cc1ccc(OCc2ccccc2)cc1)C(=O)O)c1cn2cc(-c3ccc(Cl)cc3Cl)ccc2n1` [Example E40, O-Benzyl-N-{[6-(2,4-dichlorophenyl)imidazo[1,2-a]pyridin-2-yl]carbonyl}tyrosine], `COc1cc(F)c(-c2ccc3nc(C(=O)N[C@@H](Cc4ccc(OCc5ccccc5)cc4)C(=O)O)cn3c2)c(F)c1` [Example E46, O-Benzyl-N-{[6-(2,6-difluoro-4-methoxyphenyl)imidazo[1,2-a]pyridin-2-yl]carbonyl}tyrosine] is lower in melting point: 237 to 239 °C for the first, 219 °C for the second.

Compared with `O=C(NC(Cc1ccc(OCc2ccccc2)cc1)C(=O)O)c1cn2cc(-c3ccc(OC(F)(F)F)cc3)ccc2n1` (stereo not shown) [Example E44], `O=C(N[C@@H](Cc1ccc(OCc2ccccc2)cc1)C(=O)O)c1ccc2nc(-c3ccc(Cl)cc3)c(Cl)n2c1` [Example E50, O-Benzyl-N-{[3-chloro-2-(4-chlorophenyl)imidazo[1,2-a]pyridin-6-yl]carbonyl}tyrosine] is lower in melting point: 270 to 271 °C for the first, 241 to 243 °C for the second.

First: O=C(O)CN(Cc1ccc(OCc2ccccc2)cc1)C(=O)c1cn2ccc(-c3ccc(Cl)cc3)cc2n1 [Example E52, N-[4-(Benzyloxy)benzyl]-N-{[7-(4-chlorophenyl)imidazo[1,2-a]pyridin-2-yl]carbonyl}glycine]
Second: O=C(O)CN(Cc1ccc(OCc2ccsc2)cc1)C(=O)c1cn2ccc(-c3ccc(Cl)cc3)cc2n1 [Example E53]
The melting point of the first is lower: 186 °C for the first, 187 °C for the second.
